In patent publication US11840521B2, “Modulators of Mas-related G-protein receptor X4 and related products and methods” (Escient Pharmaceuticals, Inc., priority 2019, dated 2023):

Biological target: MRGPRX4 (Homo sapiens, UniProt Q96LA9)
Test: MRGPR X4 antagonist activity, IP-One Gq HTRF assay in stably transfected HEK cells (versus agonist bilirubin, deoxycholic acid, conjugated bilirubin, urobilin, obeticholic acid or BAR502)
Assay type: cell-based
Parameters: expressed in transfected cells; host or cells: HEK cells, stably transfected
Settings: versus 10 μM Bilirubin agonist; HEK cells expressing human MRGPR X4; read-out: MRGPR4 Antagonist Activity
Experimental: HEK cells stably transfected to express human MRGPR X4 were maintained in an incubator at 37° C. with 5% CO2 and grown in DMEM media with 10% fetal bovine serum (FBS) and 1% each of sodium pyruvate, Glutamax, penicillin/streptomycin, and Geneticin. HEK cells stably transfected to express mouse MRGPR A1 were maintained in the same incubator and grown in DMEM media with 10% FBS, 1% each of sodium pyruvate, Glutamax, penicillin/streptomycin, Geneticin, and 2.2 mg/mL Hygromycin.
Cells were plated in a 384-well assay plate at 20,000 cells per well in 12 μL of Opti-MEM and kept in an incubator overnight. On the day of the assay, compounds solubilized at 10 mM in DMSO were added as a 10-point curve (10 uM final top concentration with 1:3 serial dilutions) using a Tecan D300E digital dispenser. […] Final concentrations of DMSO were kept consistent across the plate. Plates were incubated in the dark for 1 h at 37° C. and then for 30 minutes at room temperature. IP-1 standards and HTRF detection reagents were added according to the IP-One—Gq Kit purchased from Cisbio (part number 62IPAPEJ) and incubated in the dark for 1 h at room temperature. The plate was read on a Molecular Devices SpectraMax iD5 plate reader. The HTRF ratio was calculated from the raw data and graphed using GraphPad Prism to calculate an IC50 value for each compound.

MRGPRX4, sequence (Q96LA9 whole entry): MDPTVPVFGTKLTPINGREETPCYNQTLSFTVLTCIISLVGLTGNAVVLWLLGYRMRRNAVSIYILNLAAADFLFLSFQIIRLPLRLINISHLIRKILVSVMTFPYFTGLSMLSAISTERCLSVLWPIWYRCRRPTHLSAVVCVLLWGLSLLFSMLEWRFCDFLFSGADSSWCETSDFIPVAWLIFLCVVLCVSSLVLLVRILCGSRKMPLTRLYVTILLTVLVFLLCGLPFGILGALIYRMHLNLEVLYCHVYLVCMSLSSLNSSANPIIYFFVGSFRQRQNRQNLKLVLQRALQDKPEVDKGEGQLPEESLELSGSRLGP

Compound	IC50
O=C(O)c1cccc(COc2ccc3ccsc3c2)c1 [Compound 1-97]	100 to 500 nM
O=C(O)c1cccc(COc2ccc3ccncc3c2)c1 [Compound 1-98]	500 to 1000 nM
O=C(O)c1cccc(COc2cccc(C(F)F)c2)c1 [Compound 1-100]	> 2500 nM
O=C(O)c1cccc(COc2ccc(C(F)(F)F)nc2)c1 [Compound 1-102]	1000 to 2500 nM
O=C(O)c1cccc(COc2ccc(OC(F)(F)F)cc2Cl)c1 [Compound 1-103]	< 100 nM
O=C(O)c1cccc(COc2cccc(Br)c2)c1 [Compound 1-109]	500 to 1000 nM
O=C(O)c1cccc(COc2ccc(Br)cc2)c1 [Compound 1-110]	100 to 500 nM
O=C(O)c1cccc(COc2ccc(C(F)(F)F)c(F)c2)c1 [Compound 1-112]	< 100 nM
O=C(O)c1ccc(COc2ccc(Cl)cc2Cl)cc1 [Compound 1-113]	500 to 1000 nM
O=C(O)c1cncc(COc2ccc(Cl)cc2Cl)n1 [Compound 1-116]	500 to 1000 nM
O=C(O)c1cccc(COc2ccc(C(F)(F)F)c(Cl)c2)c1 [Compound 1-118]	< 100 nM
O=C(O)c1cccc(COc2ccc(C(F)(F)F)cc2Br)c1 [Compound 1-120]	< 100 nM
O=C(O)c1cc(F)cc(COc2ccc(OC(F)(F)F)cc2Cl)c1 [Compound 1-121]	100 to 500 nM
O=C(O)c1cccc(COc2ccc(C3CC3)cc2Cl)c1 [Compound 1-122]	100 to 500 nM
O=C(O)c1cc(F)cc(COc2ccc(Cl)c(Cl)c2Cl)c1 [Compound 1-123]	< 100 nM
O=C(O)c1cccc(COc2ccc(OC(F)(F)F)cc2Cl)n1 [Compound 1-125]	< 100 nM
CC(=O)c1ccc(OCc2cccc(C(=O)O)c2)c(Cl)c1 [Compound 1-126]	1000 to 2500 nM
O=C(O)c1cccc(COc2ccc3ccoc3c2)c1 [Compound 1-128]	500 to 1000 nM
O=C(O)c1cccc(COc2ccc(OC(F)(F)F)c(Cl)c2)n1 [Compound 1-129]	< 100 nM
O=C(O)c1cccc(COc2ccc3occc3c2)c1 [Compound 1-131]	100 to 500 nM

Compound	IC50
O=C(O)c1cccc(COc2ccc(OC(F)(F)F)c(Cl)c2)c1 [Compound 1-132]	< 100 nM
O=C(O)c1cccc(COc2ccc(C(F)(F)F)c(Cl)c2)n1 [Compound 1-133]	< 100 nM
O=C(O)c1cccc(COc2ccc3sccc3c2)c1 [Compound 1-134]	100 to 500 nM
O=C(O)c1cccc(COc2ccc(OC(F)F)cc2)c1 [Compound 1-135]	100 to 500 nM
O=C(O)c1c(F)ccc(COc2ccc(C(F)(F)F)cc2Cl)c1F [Compound 1-136]	< 100 nM
O=C(O)c1cc(COc2ccc(C(F)(F)F)cc2Cl)ccn1 [Compound 1-137]	100 to 500 nM
Cc1cc(OCc2cccc(C(=O)O)c2)ccc1C(F)(F)F [Compound 1-138]	> 2500 nM
Cc1cc(OCc2cccc(C(=O)O)c2)ccc1OC(F)(F)F [Compound 1-139]	> 2500 nM
O=C(O)c1cccc(COc2cccc(C(F)(F)F)c2)c1 [Compound 1-140]	1000 to 2500 nM
O=C(O)c1cccc(COc2ccccc2C(F)(F)F)c1 [Compound 1-141]	1000 to 2500 nM
O=C(O)c1cccc(COc2cccc(Br)c2Cl)c1 [Compound 1-142]	100 to 500 nM
Cc1cc(OCc2cccc(C(=O)O)c2)ccc1C#N [Compound 1-145]	100 to 500 nM
CC(C)c1ccccc1OCc1cccc(C(=O)O)c1 [Compound 1-146]	> 2500 nM
O=C(O)c1cccc(COc2ccc3c(c2)C(=O)CCC3)c1 [Compound 1-151]	> 2500 nM
CNC(=O)c1ccc(OCc2cccc(C(=O)O)c2)cc1 [Compound 1-152]	1000 to 2500 nM
N#Cc1cc(Cl)c(F)cc1OCc1cccc(C(=O)O)c1 [Compound 1-153]	100 to 500 nM
Cc1c(OCc2cccc(C(=O)O)c2)ccc2c1OCC2=O [Compound 1-154]	100 to 500 nM
O=C(O)c1cc(Cl)cc(COc2ccc(Cl)cc2Cl)c1 [Compound 2-1, 3-chloro-5-((2,4-dichlorophenoxy)methyl)benzoic acid]	< 100 nM
COc1cc(COc2ccc(C(F)(F)F)cc2Cl)cc(C(=O)O)c1 [Compound 2-2]	< 100 nM
O=C(O)c1cc(Br)cc(COc2ccc(C(F)(F)F)cc2Cl)c1 [Compound 2-3]	< 100 nM

Compound	IC50
Cc1cc(COc2ccc(Cl)c(Cl)c2Cl)nc(C(=O)O)c1 [Compound 2-4]	< 100 nM
N#Cc1cccc(COc2ccc(Cl)cc2Cl)c1 [Compound 3-1]	500 to 1000 nM
O=C(O)c1cccc(COc2cccc(-c3ccccc3)c2)c1 [Compound 3-3]	1000 to 2500 nM
O=C(O)c1cccc(COc2cccc(Cl)c2Cl)c1 [Compound 3-4]	100 to 500 nM
O=C(O)c1cccc(COc2ccc(Cl)c(Cl)c2)c1 [Compound 3-6]	100 to 500 nM
O=C(O)c1cccc(COCc2ccc(Cl)cc2Cl)c1 [Compound 3-8]	1000 to 2500 nM
O=C(O)c1cccc(COc2cc(Cl)cc(Cl)c2)c1 [Compound 3-9]	1000 to 2500 nM
O=C(O)c1ccc(F)c(COc2ccc(Cl)cc2Cl)c1 [Compound 4-2]	1000 to 2500 nM
O=C(O)c1cc(F)cc(COc2ccc(Cl)cc2Cl)c1 [Compound 4-4]	< 100 nM
COc1cc(COc2ccc(Cl)cc2Cl)cc(C(=O)O)c1 [Compound 4-5]	< 100 nM
Cc1cc(COc2ccc(Cl)cc2Cl)cc(C(=O)O)c1 [Compound 4-7]	< 100 nM
Cc1cc(COc2ccc3ccccc3c2)cc(C(=O)O)c1 [Compound 4-12]	< 100 nM
Cc1cc(COc2ccc(OC(F)(F)F)cc2Cl)cc(C(=O)O)c1 [Compound 4-14]	< 100 nM
O=C(O)c1cc(COc2ccc(C(F)(F)F)c(Cl)c2)cc(C(F)(F)F)c1 [Compound 4-16]	100 to 500 nM
Cc1cc(COc2ccc(C(F)(F)F)c(Cl)c2)cc(C(=O)O)c1 [Compound 4-17]	< 100 nM
O=C(O)c1nc(COc2ccc(C(F)(F)F)cc2Cl)ccc1F [Compound 4-18]	< 100 nM
O=C(O)c1nc(COc2ccc(C(F)(F)F)c(Cl)c2)ccc1F [Compound 4-19]	< 100 nM
O=C(O)c1cc(COc2ccc(C(F)(F)F)cc2Cl)cc(C(F)(F)F)c1 [Compound 4-20]	100 to 500 nM

Further lines, results first:

IC50	Compound
100 to 500 nM	Cc1cc(C#N)ccc1OCc1cccc(C(=O)O)c1 [Compound 1-99]
1000 to 2500 nM	Cc1cc(C(C)(C)C)ccc1OCc1cccc(C(=O)O)c1 [Compound 1-108]
1000 to 2500 nM	O=C(O)c1ccccc1COc1ccc(Cl)cc1Cl [Compound 1-114]
500 to 1000 nM	COC(=O)c1cccc(COc2ccc(C(F)(F)F)cc2Cl)c1F [Compound 1-117]
< 100 nM	O=C(O)c1cccc(COc2ccc(Cl)c(Cl)c2Cl)c1F [Compound 1-124]
< 100 nM	Cc1cc(C(F)(F)F)ccc1OCc1cccc(C(=O)O)n1 [Compound 1-127]
100 to 500 nM	O=C(O)c1cccc(COc2cc3ccccc3cc2Cl)c1 [Compound 1-130]
< 100 nM	Cc1ccc(OCc2cccc(C(=O)O)c2)c(Cl)c1Cl [Compound 1-143]
> 2500 nM	CC(C)(C)c1ccccc1OCc1cccc(C(=O)O)c1 [Compound 1-144]
1000 to 2500 nM	COc1ccc(OCc2cccc(C(=O)O)c2)c2ccccc12 [Compound 1-147]
< 100 nM	O=C(O)c1cccc(COc2ccc(Cl)c(F)c2Cl)c1 [Compound 1-148]
< 100 nM	O=C(O)c1cccc(COc2ccc(Cl)c(Cl)c2F)c1 [Compound 1-149]
> 2500 nM	N#CCc1ccccc1OCc1cccc(C(=O)O)c1 [Compound 1-150]
500 to 1000 nM	Cc1ccc(OCc2cccc(C(=O)O)c2)c(Cl)c1 [Compound 3-2, 3-((2-chloro-4-methylphenoxy)methyl)benzoic acid]
100 to 500 nM	Cc1cc(Cl)ccc1OCc1cccc(C(=O)O)c1 [Compound 3-5]
1000 to 2500 nM	Cc1ccc(OCc2cccc(C(=O)O)c2)c(C)c1 [Compound 3-7]
100 to 500 nM	O=C(O)c1cc(COc2ccc(Cl)cc2Cl)ccc1F [Compound 4-3]
100 to 500 nM	N#Cc1c(COc2ccc(Cl)cc2Cl)cccc1C(=O)O [Compound 4-6]
100 to 500 nM	Cc1c(COc2ccc(Cl)cc2Cl)cccc1C(=O)O [Compound 4-8]
< 100 nM	O=C(O)c1cccc(COc2ccc(Cl)cc2Cl)c1Cl [Compound 4-9]
< 100 nM	O=C(O)c1cccc(COc2ccc(OC(F)(F)F)cc2Cl)c1F [Compound 4-13]
< 100 nM	O=C(O)c1cccc(COc2ccc(C(F)(F)F)c(Cl)c2)c1F [Compound 4-15]
< 100 nM	O=C(O)c1cccc(COc2ccc3ccccc3c2Cl)c1F [Compound 4-21]
100 to 500 nM	O=C(O)c1cccc(COc2ccc3sccc3c2)c1F [Compound 4-22]
500 to 1000 nM	Cc1cc(N2CCCC2)ccc1OCc1cccc(C(=O)O)c1F [Compound 4-23]
500 to 1000 nM	O=C(O)c1cccc(COc2ccc(N3CCCC3)cc2Cl)c1F [Compound 4-24]
100 to 500 nM	O=C(O)c1cccc(COc2ccc(-n3cccc3)cc2Cl)c1F [Compound 4-25]
< 100 nM	O=C(O)c1cccc(COc2ccc3sccc3c2Cl)c1F [Compound 4-26]
100 to 500 nM	Cc1cc(-n2cccc2)ccc1OCc1cccc(C(=O)O)c1F [Compound 4-27]
